Measurements as given in patent US12559559B2, “Targeting Galectin-9 as a therapeutic strategy for T-cell exhaustion in T-cell acute lymphoblastic leukemia” (DANA-FARBER CANCER INSTITUTE, INC., priority 2019, dated 2026).
Where two headings read alike, the source gives them in different places.

What was measured:
[1] = system: Loucy T-ALL cell line; experiment: Cell proliferation assay (CellTiter-Glo cell viability), Loucy; assay type: cell-based; conditions: 168 h, 7 days, read-out: IC50, cell viability normalized to DMSO
Experimental: (§1) FIG. 16A-16E is a series of graphs showing inhibition of T-ALL proliferation by PI3K inhibitor is increased when combined with GSI. DND-41, HPB-ALL, KOPT-K1, Jurkat and Loucy T-ALL cell lines were treated with Buparlisib, GSI, Buparlisib with 1 μM of GSI or DMSO for 7 days. Dose response curves of cell viability normalized to DMSO are shown (datapoints are derived from 3 replicates each, error bars show standard deviation).
(§2) The leukemia cell lines (all verified by STR profiling) DND-41, KOPT-K1, HPB-ALL, Loucy, MOLT-4, NALM-6, SEM, KG-1 and HL-60 were obtained from ATCC or DSMZ, and were cultured in RPMI 1640 with 10% of heat-inactivated fetal bovine serum, 1% penicillin/streptomycin (Invitrogen).
(§3) Buparlisib (Selleckchem) and GSI (Santa Cruz Biotechnology, Inc) were prepared in DMSO (Sigma-Aldrich). Cell proliferation assays were measured by CellTiter-Glo Luminescent Cell viability assay (Promega), after a period of seven days. IC50 values were calculated by fitting the dose-response curves to a three-parameter sigmoid dose-response model using GraphPad. Error bars reflect standard deviation.

[2] = system: KOPT-K1 T-ALL cell line; experiment: Cell proliferation assay (CellTiter-Glo cell viability), KOPT-K1; assay type: cell-based; conditions: Homo sapiens, KOPTK1, 168 h, 7 days, read-out: IC50, cell viability normalized to DMSO
Experimental: as §1, §2, §3

[3] = system: HPB-ALL T-ALL cell line; experiment: Cell proliferation assay (CellTiter-Glo cell viability), HPB-ALL; assay type: cell-based; conditions: Homo sapiens, HPBALL, 168 h, 7 days, read-out: IC50, cell viability normalized to DMSO
Experimental: as §1, §2, §3

[4] = system: DND-41 T-ALL cell line; experiment: Cell proliferation assay (CellTiter-Glo cell viability), DND-41; assay type: cell-based; conditions: DND41, 168 h, 7 days, read-out: IC50, cell viability normalized to DMSO
Experimental: as §1, §2, §3

[5] = system: Jurkat T-ALL cell line; experiment: Cell proliferation assay (CellTiter-Glo cell viability), Jurkat; assay type: cell-based; conditions: Homo sapiens, 168 h, 7 days, read-out: IC50, cell viability normalized to DMSO
Experimental: as §1, §3

[6] = system: Notch; experiment: Single-cell RNA-seq of leukemic cells of ETP T-ALL patients before and after GSI treatment; assay type: in vivo, human; conditions: scRNA-seq
Text: Banked blood or bone marrow samples from patients with relapsed/refractory ETP T-ALL (see Table 1) were used in this study. All patients provided informed consent and were enrolled on a phase I clinical trial (NCT01363817) with the γ-secretase inhibitor (GSI) BMS-906024, a Notch inhibitor. Ayala Pharmaceuticals is investigating AL101 (BMS-906024) in a Phase II open-label, single-arm, multicenter study in ACC patients harboring known NOTCH1-4 activating mutations (ACCURACY; NCT03691207). Normal donor blood was obtained from Research Blood Components, LLC; and mononuclear cells (PBMCs) were isolated using Ficoll-Paque PLUS from GE Healthcare.
Full-length single-cell RNA-seq libraries were prepared using the SMART-seq2 protocol (Picelli et al., 2014 Nat Protoc, 9(1):171-181). cDNA was fragmented using Nextera XT (Illumina) and amplified with indexed Nextera PCR primers. Products were quantified using a Bioanalyzer High Sensitivity DNA Kit. Pooled libraries were sequenced on a NextSeq 500 (Illumina) with an average sequencing depth of 0.5-1 million reads per cell.
Processing and quality filtering of scRNA-seq data was carried out using trimmomatic^21, STAR (Dobin et al., 2013 Bioinformatics, 29(1):15-21), HTSeq (Anders et al., 2015 Bioinformatics, 31(2):166-169) and RSEM (Li et al., 2011 BMC Bioinformatics, 12:323). Clustering of single-cell profiles and marker gene analyses were performed using PAGODA2 (Fan et al., 2016 Nature methods, 13(3):241-244), monocole2 (Trapnell et al., 2014 Nat Biotechnol, 32(4):381-386), SEURAT (Butler et al., 2018 Nature Biotechnology, 36(5):411-420) and RNA velocity (La et al., 2018 Nature, 560(7719):494-498). Single nucleotide variant and copy number analyses were performed with mutect2 (Cibulskis et al., 2013 Nat Biotechnol, 31(3):213-219), InferCNV (Patel et al., 2014 Science, 344(6190):1396-1401; Tirosh et al., 2016 Science, 352(6282):189-196) and CONICSmat (Muller et al., 2018 Bioinformatics, 34(18):3217-3219). Single-cell profiles were compared with cell types from ImmGen (Heng et al., 2008 Nat Immunol, 9[…] a log-likelihood model. Transcriptional regulon and signaling pathway activities were analyzed with SCENIC (Fernandez et al., 2016 Cell Syst, 3(5):491-495 e495) and PROGENy (Schubert et al., 2018 Nat Commun, 9(1):20). Further details of the analysis are set forth below.
In order to fully define ETP T-ALL heterogeneity on the single-cell level, a full-length transcriptome analysis of 5,077 malignant and normal immune cells (T-cells, B-cells and monocytes) was performed from bone marrow or blood from four healthy donors and five patients with relapsed/refractory ETP T-ALL, diagnosed by immunophenotyping for ETP T-ALL, all with NOTCH1 gain-of-function mutations. These patients were treated with the γ-secretase inhibitor (GSI), and pre- and post-treatment samples were processed for this study.
The effects of Notch inhibition were next explored. […] It was hypothesized that persistence of a stem-like population might be the reason for the limited effects of Notch inhibitors in patients with relapsed/refractory Notch-mutant T-ALL.

[7] = ETP T-ALL patients treated with GSI

Structure (SMILES) | IC50 ([1]; Buparlisib alone) [nM] | IC50 ([1]; Buparlisib with 1 μM of GSI) [nM] | IC50 ([2]; KOPT-K1, Buparlisib alone) [nM] | IC50 ([2]; KOPT-K1, Buparlisib with 1 μM of GSI) [nM] | IC50 ([3]; Buparlisib alone) [nM] | IC50 ([3]; Buparlisib with 1 μM of GSI) [nM] | IC50 ([4]; DND-41, Buparlisib alone) [nM] | IC50 ([4]; DND-41, Buparlisib with 1 μM of GSI) [nM] | IC50 ([5]; Buparlisib alone) [nM] | IC50 ([5]; Buparlisib with 1 μM of GSI) [nM] | Cell cycle of leukemic cells upon treatment [6, 7] | Notch target gene expression upon treatment [6, 7] | Cycling stem-like root cells (root2) after treatment ([6]; ETP T-ALL patients) | Non-cycling root cells (root1) after treatment ([6]; ETP T-ALL patients) | Cells with high PI3K signaling activity compared to untreated cells ([6]; ETP T-ALL patients, PROGENy)
Nc1cc(C(F)(F)F)c(-c2cc(N3CCOCC3)nc(N3CCOCC3)n2)cn1 [Buparlisib] | 650 | 710 | 1160 | 250 | 340 | 0.00723 | 1010 | 132 | 720 | 423 | – | – | – | – | –
CN1C(=O)[C@@H](NC(=O)[C@H](CCC(F)(F)F)[C@H](CCC(F)(F)F)C(N)=O)N=C(c2ccccc2)c2ccccc21 [GSI, BMS-906024] | – | – | – | – | – | – | – | – | – | – | Cell cycle arrest | downregulation of Notch target genes | abolishes the cycling stem-like root cells (root2) | persist in the face of treatment | enrichment of cells with high PI3K signaling activity
